Data from ChEMBL document CHEMBL1136573, “Condensed aromatic peptide family of microbial metabolites, inhibitors of CD28-CD80 interactions” (Bioorg Med Chem Lett, 2003).

Experiments:
[1] = target: T-cell surface glycoprotein CD4 (Homo sapiens, UniProt P01730); assay: Inhibitory concentration against CD4-gp120 binding in the absence of fetal bovine serum (FBS); Range is 0.13-0.5 uM
[2] = Inhibition of CD28-CD80 interaction in the absence of fetal bovine serum (FBS)
[3] = Inhibition of CD28-CD80 interaction in the presence of fetal bovine serum (FBS)

IC50 [1] [nM]	IC50 [2] [nM]	IC50 [3] [nM]	Compound
130	8	220	CC(=O)CC(O)(C(=O)N[C@@H]1Cc2c[nH]c3cc(ccc23)-c2cc3cc(c2O)Oc2ccc(cc2)C[C@@H](C(=O)N[C@@H](C(=O)O)c2ccc(O)cc2)N(C)C(=O)[C@@H](c2cc(Cl)c(O)c(Cl)c2)NC(=O)[C@@H]3NC(=O)[C@@H](c2cc(Cl)c(O)c(Cl)c2)NC1=O)c1cc(Cl)c(O)c(Cl)c1 (some centres undefined)
130	10	380	CN1C(=O)[C@@H](c2cc(Cl)c(O)c(Cl)c2)NC(=O)[C@@H]2NC(=O)[C@@H](c3cc(Cl)c(O)c(Cl)c3)NC(=O)[C@H](NC(=O)C(=O)c3cc(Cl)c(O)c(Cl)c3)Cc3c[nH]c4c(cccc34)-c3cc2cc(c3O)Oc2ccc(cc2)C[C@H]1C(=O)N[C@@H](C(=O)O)c1ccc(O)cc1 [CHLOROPEPTIN]
130	10	420	CN1C(=O)[C@@H](c2cc(Cl)c(O)c(Cl)c2)NC(=O)[C@@H]2NC(=O)[C@@H](c3cc(Cl)c(O)c(Cl)c3)NC(=O)[C@H](NC(=O)C(=O)c3cc(Cl)c(O)c(Cl)c3)Cc3c[nH]c4cc(ccc34)-c3cc2cc(c3O)Oc2ccc(cc2)C[C@H]1C(=O)N[C@@H](C(=O)O)c1ccc(O)cc1 [ISOCOMPLESTATIN]
